Several values for one entry are separate records, joined by “and”; a condition that tells them apart may be missing. Equal values may be shown once. Inconclusive results and toxic doses are left out.
System: L1210 leukemia ip in BDF1 mice, survival T/C
Experiment: NCI In Vivo Anticancer Drug Screen. Data for tumor model L1210 Leukemia (intraperitoneal) in B6D2F1 (BDF1) mice
Conditions: endpoint: mean survival time, higher = longer survival
In short: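 Value reflects the ratio of survival in compound-treated mice to survival in vehicle-treated controls, with both groups carrying the same transplanted tumor.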

[1] = dose: 25.0 mg/kg/injection, schedule: Q01DX009 (ip), vehicle: saline with Tween-80
[2] = dose: 100.0 mg/kg/injection, schedule: Q01DX009 (ip), vehicle: Klucel (hydroxypropylcellulose) (HPC)
[3] = dose: 100.0 mg/kg/injection, schedule: Q04DX003 (ip), vehicle: saline with Tween-80
[4] = dose: 200.0 mg/kg/injection, schedule: Q01DX009 (ip), vehicle: Klucel (hydroxypropylcellulose) (HPC)
[5] = dose: 400.0 mg/kg/injection, schedule: Q01DX009 (ip), vehicle: Klucel (hydroxypropylcellulose) (HPC)
[6] = dose: 400.0 mg/kg/injection, schedule: Q04DX003 (ip), vehicle: saline with Tween-80
[7] = dose: 100.0 mg/kg/injection, schedule: Q01DX001 (ip), vehicle: saline
[8] = dose: 200.0 mg/kg/injection, schedule: Q01DX001 (ip), vehicle: saline
[9] = dose: 400.0 mg/kg/injection, schedule: Q01DX001 (ip), vehicle: saline
[10] = dose: 100.0 mg/kg/injection, schedule: Q01DX009 (ip), vehicle: saline with Tween-80
[11] = dose: 100.0 mg/kg/injection, schedule: Q04DX003 (ip), vehicle: Klucel (hydroxypropylcellulose) (HPC)
[12] = dose: 200.0 mg/kg/injection, schedule: Q04DX003 (ip), vehicle: Klucel (hydroxypropylcellulose) (HPC)
[13] = dose: 400.0 mg/kg/injection, schedule: Q04DX003 (ip), vehicle: Klucel (hydroxypropylcellulose) (HPC)
[14] = dose: 50.0 mg/kg/injection, schedule: Q01DX001 (ip), vehicle: saline

CCCCCCCCCCCC[N+](C)(C)Cc1ccccc1
T/C (dose: 1.56 mg/kg/injection, schedule: Q01DX009 (ip), vehicle: saline): 106 % of control | T/C (dose: 3.12 mg/kg/injection, schedule: Q01DX009 (ip), vehicle: saline): 111 % of control | T/C (dose: 3.12 mg/kg/injection, schedule: Q04DX003 (ip), vehicle: saline): 98 % of control | T/C (dose: 6.25 mg/kg/injection, schedule: Q04DX003 (ip), vehicle: saline): 104 % of control | T/C (dose: 12.5 mg/kg/injection, schedule: Q01DX001 (ip), vehicle: saline): 103 % of control

CCCCCCCCCCCC1=NCCN1
T/C (dose: 6.25 mg/kg/injection, schedule: Q01DX009 (ip), vehicle: saline): 91 % of control | T/C (dose: 12.5 mg/kg/injection, schedule: Q01DX009 (ip), vehicle: saline): 91 % of control | T/C (dose: 12.5 mg/kg/injection, schedule: Q04DX003 (ip), vehicle: saline): 89 % of control | T/C [1]: 93 % of control | T/C (dose: 25.0 mg/kg/injection, schedule: Q01DX009 (ip), vehicle: saline): 93 % of control | T/C (dose: 25.0 mg/kg/injection, schedule: Q04DX003 (ip), vehicle: saline with Tween-80): 97 % of control | T/C (dose: 25.0 mg/kg/injection, schedule: Q04DX003 (ip), vehicle: saline): 94 % of control | T/C (dose: 50.0 mg/kg/injection, schedule: Q01DX009 (ip), vehicle: saline): 91 % of control | T/C (dose: 50.0 mg/kg/injection, schedule: Q04DX003 (ip), vehicle: saline with Tween-80): 97 % of control | T/C (dose: 50.0 mg/kg/injection, schedule: Q04DX003 (ip), vehicle: saline): 94 % of control | T/C [2]: 100 % of control | T/C [3]: 100 % of control | T/C [4]: 96 % of control | T/C [5]: 88 % of control

CCCCCCC(/C=N/N=C(N)N)=N\N=C(N)N
T/C (dose: 15.0 mg/kg/injection, schedule: Q01DX Z (ip), vehicle: carboxymethylcellulose (CMC)): 100 % of control | T/C (dose: 15.0 mg/kg/injection, schedule: Q01DX Z (oral), vehicle: carboxymethylcellulose (CMC)): 101 % of control | T/C (dose: 30.0 mg/kg/injection, schedule: Q01DX Z (ip), vehicle: carboxymethylcellulose (CMC)): 95 % of control | T/C (dose: 30.0 mg/kg/injection, schedule: Q01DX Z (oral), vehicle: carboxymethylcellulose (CMC)): 93 % of control | T/C (dose: 60.0 mg/kg/injection, schedule: Q01DX Z (oral), vehicle: carboxymethylcellulose (CMC)): 109 % of control

CC(C(N)=O)N1C(=O)C2C3C=CC(C3)C2C1=O (stereo not given)
T/C [3]: 109 % of control | T/C [6]: 97 % of control

CC(=O)CC(=O)Nc1cc(C(F)(F)F)ccc1Cl
T/C [7]: 97 % of control | T/C [8]: 101 % of control | T/C [9]: 101 % of control

COC(=O)/C(=C1/OC(=O)C(c2ccccc2)=C1O)c1ccccc1
T/C [1]: 93 % of control | T/C (dose: 50.0 mg/kg/injection, schedule: Q01DX009 (ip), vehicle: saline with Tween-80): 95 % of control | T/C [10]: 93 % of control | T/C [3]: 100 % of control

CCNC(c1ccccc1)C(O)c1ccccc1 (stereo not given)
T/C (dose: 50.0 mg/kg/injection, schedule: Q04DX002 (ip), vehicle: Klucel (hydroxypropylcellulose) (HPC)): 94 % of control | T/C [2]: 104 % of control | T/C (dose: 100.0 mg/kg/injection, schedule: Q04DX002 (ip), vehicle: Klucel (hydroxypropylcellulose) (HPC)): 105 % of control | T/C [4]: 102 % of control

COc1ccc(S(=O)(=O)O)cc1NC(=O)CC(=O)c1cccc([N+](=O)[O-])c1
T/C [7]: 97 % of control | T/C [8]: 95 % of control | T/C [9]: 100 % of control

COC1OC2COC(c3ccccc3)OC2C(O)C1NC(=O)c1ccccc1 (stereo not given)
T/C [11]: 110 % of control | T/C [12]: 94 % of control | T/C [13]: 111 % of control

CCCCCCC(O)CO (stereo not given)
T/C (dose: 100.0 mg/kg/injection, schedule: Q04DX003 (ip), vehicle: saline): 105 % of control | T/C (dose: 200.0 mg/kg/injection, schedule: Q04DX003 (ip), vehicle: saline): 112 % of control | T/C (dose: 400.0 mg/kg/injection, schedule: Q04DX003 (ip), vehicle: saline): 109 % of control

CSc1ccc(OC(=O)NC2CCCCC2)cc1C
T/C [2]: 92 % of control | T/C [11]: 93 % of control | T/C [4]: 97 % of control | T/C [12]: 111 % of control | T/C [5]: 93 % of control | T/C [13]: 95 % of control

CC(=O)OC(c1ccccc1)C1CCCCC1N1CCCCC1 (stereo not given)
T/C (dose: 100.0 mg/kg/injection, schedule: Q01DX001 (ip), vehicle: Klucel (hydroxypropylcellulose) (HPC)): 95 % of control | T/C (dose: 200.0 mg/kg/injection, schedule: Q01DX001 (ip), vehicle: Klucel (hydroxypropylcellulose) (HPC)): 96 % of control

CN1CCCCCC(=N\O)/C(=N/O)CCCCC1
T/C [14]: 101 % of control | T/C [7]: 103 % of control | T/C [8]: 100 % of control

O=C(CCCC(O)(C1CC1)C1CC1)C1CC1
T/C (dose: 100.0 mg/kg/injection, schedule: Q01DX009 (ip), vehicle: acetone): 106 % of control | T/C (dose: 100.0 mg/kg/injection, schedule: Q04DX003 (ip), vehicle: acetone): 112 % of control | T/C (dose: 200.0 mg/kg/injection, schedule: Q01DX009 (ip), vehicle: acetone): 106 % of control | T/C (dose: 200.0 mg/kg/injection, schedule: Q04DX003 (ip), vehicle: acetone): 101 % of control | T/C (dose: 400.0 mg/kg/injection, schedule: Q01DX009 (ip), vehicle: acetone): 109 % of control | T/C (dose: 400.0 mg/kg/injection, schedule: Q04DX003 (ip), vehicle: acetone): 101 % of control

CCN(CC)P(=O)(N1CC1(C)C)N1CC1(C)C (stereo not given)
T/C (dose: 88.0 mg/kg/injection, schedule: Q01DX001 (ip), vehicle: carboxymethylcellulose (CMC)): 114 % of control | T/C (dose: 88.0 mg/kg/injection, schedule: Q01DX001 (ip), vehicle: saline): 102 % of control | T/C [7]: 118 % of control | T/C (dose: 133.0 mg/kg/injection, schedule: Q01DX001 (ip), vehicle: carboxymethylcellulose (CMC)): 118 % of control | T/C (dose: 133.0 mg/kg/injection, schedule: Q01DX001 (ip), vehicle: saline): 107 % of control | T/C (dose: 200.0 mg/kg/injection, schedule: Q01DX001 (ip), vehicle: carboxymethylcellulose (CMC)): 114 % of control | T/C (dose: 300.0 mg/kg/injection, schedule: Q01DX001 (ip), vehicle: saline): 115 % of control

CCCCCCCCCCCCCCCC(=O)Nc1ccc(Cl)cc1
T/C (dose: 100.0 mg/kg/injection, schedule: Q04DX002 (ip), vehicle: saline with Tween-80): 94 % of control | T/C (dose: 200.0 mg/kg/injection, schedule: Q04DX002 (ip), vehicle: saline with Tween-80): 94 % of control | T/C (dose: 400.0 mg/kg/injection, schedule: Q04DX002 (ip), vehicle: saline with Tween-80): 97 % of control

Cc1[nH]c2ccccc2c1C(=O)Cc1ccc(Cl)cc1Cl
T/C [14]: 98 % of control | T/C [7]: 101 % of control | T/C [8]: 101 % of control | T/C [9]: 95 % of control

OCC1OC(n2cnc3c(=S)nc[nH]c32)CC1O (stereo not given)
T/C (dose: 8.0 mg/kg/injection, schedule: Q01DX015 (ip), vehicle: saline): 103 % of control | T/C (dose: 16.0 mg/kg/injection, schedule: Q01DX015 (ip), vehicle: saline): 108 % of control | T/C (dose: 32.0 mg/kg/injection, schedule: Q01DX015 (ip), vehicle: saline): 115 % of control | T/C [14]: 104 % of control | T/C (dose: 64.0 mg/kg/injection, schedule: Q01DX015 (ip), vehicle: saline): 122 % of control | T/C [7]: 106 % of control | T/C (dose: 178.0 mg/kg/injection, schedule: Q01DX001 (ip), vehicle: saline): 113 % of control | T/C (dose: 180.0 mg/kg/injection, schedule: Q01DX015 (ip), vehicle: saline): 156 % of control | T/C [8]: 115 % of control | T/C (dose: 267.0 mg/kg/injection, schedule: Q01DX001 (ip), vehicle: saline): 108 % of control | T/C (dose: 300.0 mg/kg/injection, schedule: Q01DX015 (ip), vehicle: saline): 154 % of control and 156 % of control | T/C [9]: 121 % of control | T/C (dose: 600.0 mg/kg/injection, schedule: Q01DX015 (ip), vehicle: saline): 163 % of control

NC(CC(=O)O)c1nn[nH]n1 (stereo not given)
T/C [10]: 102 % of control | T/C [3]: 105 % of control | T/C (dose: 200.0 mg/kg/injection, schedule: Q01DX009 (ip), vehicle: saline with Tween-80): 98 % of control | T/C (dose: 200.0 mg/kg/injection, schedule: Q04DX003 (ip), vehicle: saline with Tween-80): 102 % of control | T/C [6]: 103 % of control
